Here are results for four molecules from ChEMBL document CHEMBL1144896 (2003).

Molecules are shown by their SMILES.

Common to all, as to assay type: functional
Assay [1] has as its system NCI-H1299. Briefly: Compound was tested for human telomerase reverse transcriptase-SEAP (hTERT-SEAP) activity in non-small cell lung cancer H1299 cell at 190.0 uM concentration.
The subject of assay [2] is BJ. Briefly: hTERT-SEAP (Human telomerase reverse transcriptase-SEAP) activity in immortalized hTERT-BJI at 19 uM concentration and level of cell viability determined in MTT assay.
In assay [3] the test system is NCI-H1299. The experiment in a line: hTERT-SEAP (Human telomerase reverse transcriptase-SEAP) activity in non-small cell lung cancer H1299 cell at 19 uM concentration and level of cell viability determined in MTT assay. A general note: Tetrazolium dyes change colour on reduction, which living cells bring about.
The subject of assay [4] is BJ. The experiment in a line: Compound was tested for human telomerase reverse transcriptase-SEAP (hTERT-SEAP) activity in immortalized hTERT-BJI at 190.0 uM concentration.
Assay [5] concerns NCI-H1299. The experiment in a line: hTERT-SEAP (Human telomerase reverse transcriptase-SEAP) activity in non-small cell lung cancer H1299 cell at 1.9 uM concentration and level of cell viability determined in MTT assay.
Assay [6] has as its system BJ. Briefly: Compound was tested for human telomerase reverse transcriptase-SEAP (hTERT-SEAP) activity in immortalized hTERT-BJI at 19 uM concentration.
Assay [7] deals with NCI-H1299. Briefly: hTERT-SEAP (Human telomerase reverse transcriptase-SEAP) activity in non-small cell lung cancer H1299 cell at 190.0 uM concentration and level of cell viability determined in MTT assay.
For assay [8], the system named is NCI-H1299. The experiment in a line: Compound was tested for human telomerase reverse transcriptase-SEAP (hTERT-SEAP) activity in non-small cell lung cancer H1299 cell at 1.9 uM concentration.
For assay [9], the system named is BJ. The experiment in a line: hTERT-SEAP (Human telomerase reverse transcriptase-SEAP) activity in immortalized hTERT-BJI at 190.0 uM concentration and level of cell viability determined in MTT assay.
Assay [10] concerns NCI-H1299. Briefly: Compound was tested for human telomerase reverse transcriptase-SEAP (hTERT-SEAP) activity in non-small cell lung cancer H1299 cell at 19 uM concentration.
The subject of assay [11] is NCI-H1299. Briefly: hTERT-SEAP (Human telomerase reverse transcriptase-SEAP) activity in non-small cell lung cancer H1299 cell at 2.8 uM concentration and level of cell viability determined in MTT assay.
The test system of assay [12] is BJ. The experiment in a line: Compound was tested for human telomerase reverse transcriptase-SEAP (hTERT-SEAP) activity in immortalized hTERT-BJI at 2.8 uM concentration.
For assay [13], the system named is NCI-H1299. Briefly: Compound was tested for human telomerase reverse transcriptase-SEAP (hTERT-SEAP) activity in non-small cell lung cancer H1299 cell at 2.8 uM concentration.
Assay [14] concerns NCI-H1299. Briefly: hTERT-SEAP (Human telomerase reverse transcriptase-SEAP) activity in non-small cell lung cancer H1299 cell at 28 uM concentration and level of cell viability determined in MTT assay.
Assay [15] has as its system BJ. The experiment in a line: hTERT-SEAP (Human telomerase reverse transcriptase-SEAP) activity in immortalized hTERT-BJI at 280.0 uM concentration and level of cell viability determined in MTT assay.
Assay [16] concerns NCI-H1299. The experiment in a line: hTERT-SEAP (Human telomerase reverse transcriptase-SEAP) activity in non-small cell lung cancer H1299 cell at 280.0 uM concentration and level of cell viability determined in MTT assay.
The test system of assay [17] is BJ. The experiment in a line: hTERT-SEAP (Human telomerase reverse transcriptase-SEAP) activity in immortalized hTERT-BJI at 28.0 uM concentration and level of cell viability determined in MTT assay.
The subject of assay [18] is NCI-H1299. Briefly: Compound was tested for human telomerase reverse transcriptase-SEAP (hTERT-SEAP) activity in non-small cell lung cancer H1299 cell at 28.0 uM concentration.
For assay [19], the system named is BJ. The experiment in a line: hTERT-SEAP (Human telomerase reverse transcriptase-SEAP) activity in immortalized hTERT-BJI at 2.8 uM concentration and level of cell viability determined in MTT assay.
Assay [20] concerns NCI-H1299. Briefly: Compound was tested for human telomerase reverse transcriptase-SEAP (hTERT-SEAP) activity in non-small cell lung cancer H1299 cell at 280.0 uM concentration.
Assay [21] concerns BJ. Briefly: Compound was tested for human telomerase reverse transcriptase-SEAP (hTERT-SEAP) activity in immortalized hTERT-BJI at 280.0 uM concentration.
In assay [22] the test system is BJ. Briefly: Compound was tested for human telomerase reverse transcriptase-SEAP (hTERT-SEAP) activity in immortalized hTERT-BJI at 28.0 uM concentration.

In the case of `O=C(Oc1cccc2c1C(=O)c1cccc(OC(=O)c3cccc(Cl)c3)c1C2=O)c1cccc(Cl)c1`, the “Relative SEAP activity” value in assay [1] stood at 81%; in assay [4], 91%; in assay [6], 152%; in assay [8], 83%; in assay [10], 92%. Moreover, the Relative viability in assay [2] is 80%; in assay [3] it was 88%; in assay [5], 98%; in assay [7], 46%; in assay [9], 44%.
Regarding `O=C1c2cccc(SCCO)c2C(=O)c2cccc(SCCO)c21`, the Relative viability in assay [11] worked out at 54%; in assay [14], 29%; in assay [15] it was 23%; in assay [16], 36%; in assay [17], 49%; in assay [19], 94%. In addition, the “Relative SEAP activity” value in assay [12] stood at 104%; in assay [13], 97%; in assay [18], 76%; in [20] it was 45%; in assay [21], 71%; in assay [22], 98%.
In the case of `O=C(Oc1cccc2c1C(=O)c1cccc(OC(=O)c3ccccc3Cl)c1C2=O)c1ccccc1Cl`, the “Relative SEAP activity” value in assay [1] is reported as 97%; in assay [4] it was 97%; in assay [6] it was 116%; in assay [8], 93%; in assay [10], 101%. The Relative viability in assay [2] was 92%; in [3] it was 34%; in assay [5], 74%; in assay [7], 30%; in assay [9], 40%.
`O=C(Oc1cccc2c1C(=O)c1cccc(OC(=O)c3ccc(Cl)cc3)c1C2=O)c1ccc(Cl)cc1`: the “Relative SEAP activity” value is listed as 97% in assay [1]; 107% in assay [4]; 123% in assay [6]; 106% in [8]; 106% in assay [10]. Moreover, the Relative viability in assay [2] is given as 89%; in assay [3], 57%; in assay [5], 91%; in [7] it was 31%; in [9], 48%.
